# Data reported in publication PMC9738727, “Purification and Characterization of Novel Anti-MRSA Peptides Produced by Brevibacillus sp. SPR-20” (Molecules, 2022).
# Ends that are not written are not given here.
# Tests used:
# MRSA isolate 2468 [1] = experiment: Agar well diffusion, arbitrary activity of purification fractions; format: cell-based, Staphylococcus aureus; conditions: 2-fold dilutions, AU per mg total protein
# Protocol: Eight milliliters of the SPR-20 starter culture was added to 392 mL of Luria–Bertani (LB) broth (Titan Biotech Ltd., Rajasthan, India) in a 2 L flask. The culture was incubated at 30 °C and 150 rpm for 24 h before the crude supernatant was collected by centrifugation at 10,000× g and 4 °C for 15 min. Ammonium sulfate at 75% of saturation was added to the supernatant, and the precipitate was desalted by dialysis using a 3.5 kDa molecular weight cut-off (MWCO) SnakeSkin membrane (Pierce, Rockford, IL, USA) in the dialysis buffer (50 mM ammonium acetate pH 5.0 and 50 mM NaCl) at 4 °C for 16 h. The sample solution was purified by a HiTrap SP column under the elution gradient of buffer A (50 mM ammonium acetate pH 5.0 and 50 mM NaCl) and buffer B (50 mM ammonium acetate pH 5.0 and 1 M NaCl). The flow rate was set at 3 mL/min, and the wavelength was monitored at 214 nm. […] The peak was detected at 214 nm. […] The active fractions obtained from each purification step were prepared at different concentrations using 2-fold dilution, and the antimicrobial activity against MRSA isolate 2468 was determined by agar well diffusion assay.
# The antimicrobial activity was measured by an agar well diffusion test with some modified methods. […] Each experiment was performed in three independent replicates, and the inhibition zone was measured and expressed as mean ± SD.
# [2] = Circular dichroism secondary structure content (CONTINLL); format: physicochemical; conditions: CD, 25 °C
# Protocol: The purified peptides (0.6 mg/mL) were dissolved in deionized water or 50 mM SDS and introduced into the circular dichroism (CD) spectrophotometer (JASCO Corporation, Tokyo, Japan). A 1 mm quartz cell was used for the measurement. The CD spectra were collected at 25 °C in the wavelength between 190 and 260 nm with a scanning speed of 100 nm/min, a bandwidth of 1.0 nm, and a data resolution of 0.1 nm. Each experiment was performed in three replications, and the background spectrum of the corresponding solvent was subtracted from the peptide spectrum. The content of the secondary structure of the peptides was calculated using the CONTINLL program.
# MRSA isolate 2468 [3] = experiment: Thermal, surfactant and pH stability, remaining activity by agar well diffusion; format: physicochemical, Staphylococcus aureus; conditions: P1 15 μg/mL, vancomycin 300 μg/mL, mean ± SD, n=3
# Protocol: (§1) The antimicrobial activity was measured by an agar well diffusion test with some modified methods. In brief, single colonies of the tested strains were suspended in 0.85% NaCl, and then the OD at 625 nm was adjusted to 0.1. The cell suspensions were spread on MH agar, and the tested samples (100 μL) were introduced into each well before incubation at 37 °C for 24 h. Each experiment was performed in three independent replicates, and the inhibition zone was measured and expressed as mean ± SD.
# (§2) The stability of the anti-MRSA peptide against several conditions was studied. […] The sensitivity of the peptide sample to proteolytic enzymes was investigated by incubating the sample with proteinase K, trypsin, and α-chymotrypsin (1 mg/mL) for 1 h. Surfactant compatibility of the substance was examined by incubating the sample with 1% SDS and 1% Triton X-100 for 1 h (AppliChem GmbH, Darmstadt, Germany). The acid and base hydrolysis property of the substance was assessed by pH adjustment to 2–14 for 1 h before the samples were neutralized to pH 7. After all treatments, the antimicrobial assay by agar well diffusion against S. aureus TISTR 517 and MRSA isolate 2468 was performed in three independent experiments. The stability profiles were presented as the percentage of activity relative to the untreated condition (mean ± SD), and significant difference was determined by the Student’s t-test at a p-value < 0.05.
# S. aureus TISTR 517 [4] = experiment: as above; format: physicochemical, Staphylococcus aureus; conditions: for % Remaining Activity: P1 15 μg/mL, vancomycin 300 μg/mL, mean ± SD, n=3
# Protocol: as §1, §2
# MRSA isolate 2468 [5] = experiment: Cell lysis (OD 625 nm), leakage of genetic materials (A260) and viable count; format: cell-based, Staphylococcus aureus; conditions: for cell lysis (OD 625 nm reduction): within 1 h, PBS pH 7.4 + 4% CAMHB, mean ± SD, triplicate
# Protocol: (§3) The lysis of bacterial cells was monitored by measuring the OD reduction at 625 nm, whereas the leakage of genetic material was evaluated by measuring the absorbance at 260 nm. Briefly, the bacterial colonies were collected from MH agar and then washed with PBS pH 7.4 three times. The OD at 625 nm of the washed cells was adjusted to 0.35 with PBS pH 7.4 supplemented with an incomplete medium (4% CAMHB) before the cells were transferred to a 96-well plate (100 μL/well). […] For each treatment condition at different time intervals, the reduction in OD at 625 nm was determined, and the supernatant of the treated samples was collected to measure the absorbance at 260 nm. The experiment was performed in triplicate, and the results were expressed as mean ± SD. Two-way ANOVA and post hoc Tukey’s test (p-value < 0.05) were used to determine the significance of differences between treated and non-treated samples.
# S. aureus TISTR 517 [6] = experiment: as above; format: cell-based, Staphylococcus aureus
# Protocol: as §3
# [7] = 60 °C, 1 h, % of untreated sample
# [8] = 80 °C, 1 h, % of untreated sample
# [9] = 100 °C, 1 h, % of untreated sample
# [10] = […], 15 psi, 15 min (autoclave), % of untreated sample
# [11] = pH 2, 1 h, then neutralized to pH 7
# [12] = pH 4, 1 h, then neutralized to pH 7
# [13] = pH 5, 1 h, then neutralized to pH 7
# [14] = pH 6, 1 h, then neutralized to pH 7
# [15] = pH 8, 1 h, then neutralized to pH 7
# [16] = pH 9, 1 h, then neutralized to pH 7
# [17] = pH 11, 1 h, then neutralized to pH 7
# [18] = pH 12, 1 h, then neutralized to pH 7
# [19] = pH 13, 1 h, then neutralized to pH 7
# [20] = pH 14, 1 h, then neutralized to pH 7
# [21] = sample + 1% SDS, 1 h, % of untreated sample
# [22] = sample + 1% Triton X-100, 1 h, % of untreated sample
sequence,measurement,setting,value
VVVNVLVKVLPPPVV [Peptide P1],Specific Activity,MRSA isolate 2468 [1],1694 AU/mg
same,Random,[2]; 0.6 mg/mL in 50 mM SDS,34.6%
same,Turn,[2]; 0.6 mg/mL in 50 mM SDS,10.6%
same,α-Helix,[2]; 0.6 mg/mL in 50 mM SDS,25.5%
same,β-Strand,[2]; 0.6 mg/mL in 50 mM SDS,29.3%
same,Random,[2]; 0.6 mg/mL in H2O,32.4%
same,Turn,[2]; 0.6 mg/mL in H2O,19.5%
same,α-Helix,[2]; 0.6 mg/mL in H2O,4.1%
same,β-Strand,[2]; 0.6 mg/mL in H2O,44.0%
same,% Remaining Activity,MRSA isolate 2468 [3]; [7],100.00 ± 0.79%
same,% Remaining Activity,MRSA isolate 2468 [3]; [8],99.08 ± 0.00%
same,% Remaining Activity,MRSA isolate 2468 [3]; [9],98.62 ± 0.79%
same,% Remaining Activity,MRSA isolate 2468 [3]; [10],98.62 ± 0.79%
same,% Remaining Activity,MRSA isolate 2468 [3]; [11],97.57 ± 1.46%
same,% Remaining Activity,MRSA isolate 2468 [3]; [12],99.03 ± 1.46%
same,% Remaining Activity,MRSA isolate 2468 [3]; [13],97.09 ± 1.68%
same,% Remaining Activity,MRSA isolate 2468 [3]; [14],97.57 ± 3.85%
same,% Remaining Activity,"MRSA isolate 2468 [3]; pH 7, 1 h",97.57 ± 5.25%
same,% Remaining Activity,MRSA isolate 2468 [3]; [15],97.09 ± 2.22%
same,% Remaining Activity,MRSA isolate 2468 [3]; [16],98.03 ± 1.71%
same,% Remaining Activity,MRSA isolate 2468 [3]; [17],98.03 ± 2.26%
same,% Remaining Activity,MRSA isolate 2468 [3]; [18],97.54 ± 0.00%
same,% Remaining Activity,MRSA isolate 2468 [3]; [19],99.51 ± 0.85%
same,% Remaining Activity,MRSA isolate 2468 [3]; [20],100.00 ± 3.08%
same,% Remaining Activity,MRSA isolate 2468 [3]; [21],117.13 ± 1.60 %
same,% Remaining Activity,MRSA isolate 2468 [3]; [22],115.74 ± 0.80 %
same,% Remaining Activity,S. aureus TISTR 517 [4]; [7],100.49 ± 0.84%
same,% Remaining Activity,S. aureus TISTR 517 [4]; [8],100.00 ± 0.84%
same,% Remaining Activity,S. aureus TISTR 517 [4]; [9],100.00 ± 0.84%
same,% Remaining Activity,S. aureus TISTR 517 [4]; [10],98.54 ± 1.69%
same,% Remaining Activity,S. aureus TISTR 517 [4]; [11],98.48 ± 3.17%
same,% Remaining Activity,S. aureus TISTR 517 [4]; [12],97.97 ± 5.77%
same,% Remaining Activity,S. aureus TISTR 517 [4]; [13],97.46 ± 2.64%
same,% Remaining Activity,S. aureus TISTR 517 [4]; [14],97.97 ± 3.17%
same,% Remaining Activity,"S. aureus TISTR 517 [4]; pH 7, 1 h",97.97 ± 1.76%
same,% Remaining Activity,S. aureus TISTR 517 [4]; [15],102.54 ± 3.17%
same,% Remaining Activity,S. aureus TISTR 517 [4]; [16],100.00 ± 1.49%
same,% Remaining Activity,S. aureus TISTR 517 [4]; [17],98.01 ± 2.28%
same,% Remaining Activity,S. aureus TISTR 517 [4]; [18],96.52 ± 2.28%
same,% Remaining Activity,S. aureus TISTR 517 [4]; [19],98.51 ± 1.49%
same,% Remaining Activity,S. aureus TISTR 517 [4]; [20],101.00 ± 1.72%
same,% Remaining Activity,S. aureus TISTR 517 [4]; [21],114.49 ± 3.53 %
same,% Remaining Activity,S. aureus TISTR 517 [4]; [22],125.23 ± 2.92 %
same,activity remaining under several stress conditions,"S. aureus TISTR 517 [4]; text summary of Table 6, both test strains",over 90%
same,increase of genetic content in the supernatant (A260),"MRSA isolate 2468 [5]; 30 min, 1×-4× MIC",1.15–1.47 times
same,inhibition by viable cell count,"MRSA isolate 2468 [5]; 24 h, 1× MIC",34.46 ± 0.64%
same,increase of genetic release (A260),"MRSA isolate 2468 [5]; 24 h, 1×-4× MIC",1.81–2.07 times
same,inhibition by viable cell count,"MRSA isolate 2468 [5]; 24 h, 2× MIC",64.47 ± 3.56%
same,inhibition by viable cell count,"MRSA isolate 2468 [5]; 24 h, 4× MIC",96.13 ± 6.70%
same,cell lysis (OD 625 nm reduction),MRSA isolate 2468 [5]; 1× MIC,12.68 ± 13.57%
same,cell lysis (OD 625 nm reduction),MRSA isolate 2468 [5]; 2× MIC,26.13 ± 9.48%
same,cell lysis (OD 625 nm reduction),MRSA isolate 2468 [5]; 4× MIC,20.75 ± 2.75%
same,increase of genetic content in the supernatant (A260),"S. aureus TISTR 517 [6]; 30 min, 1×-4× MIC",1.09–1.60 times
same,inhibition by viable cell count,"S. aureus TISTR 517 [6]; 24 h, 1× MIC",8.60 ± 0.26%
same,cell lysis,"S. aureus TISTR 517 [6]; 24 h, 1×-4× MIC",more than 39.67%
same,increase of genetic release (A260),"S. aureus TISTR 517 [6]; 24 h, 1×-4× MIC",2.05–2.29 times
same,inhibition by viable cell count,"S. aureus TISTR 517 [6]; 24 h, 2× MIC",67.63 ± 1.96%
same,inhibition by viable cell count,"S. aureus TISTR 517 [6]; 24 h, 4× MIC",94.35 ± 9.78%
same,cells destroyed (OD 625 nm reduction),"S. aureus TISTR 517 [6]; first hour, 1× MIC, PBS pH 7.4 + 4% CAMHB, mean ± SD, triplicate",21.08 ± 1.11%
